Measurements published in the NIST ThermoML archive (doi:10.1016/j.jct.2013.12.010).

Experiment: cn = amount concentration of the nth substance listed, in mol/dm3
Conditions: 298.15 K, 101 kPa, Liquid, Taylor dispersion method

Row | binary diffusion coefficient (c1 = 0.005) [m2/s] | binary diffusion coefficient (c1 = 0.1) [m2/s] | SMILES
1 | 2.99e-09 | 2.9e-09 | Cl [hydrogen chloride] + O
2 | 6.2e-10 | – | N[C@@H](Cc1ccc(O)c(O)c1)C(=O)O [L-3,4-dihydroxyphenylalanine] + O
